Several values for one entry are separate records, joined by “and”; a condition that tells them apart may be missing. Equal entries are not always repeated. Inconclusive results and toxic doses are left out.
Test system: P388 leukemia ip, CD2F1 mice, survival T/C
Assay: NCI In Vivo Anticancer Drug Screen. Data for tumor model P388 Leukemia (intraperitoneal) in CD2F1 (CDF1) mice
Conditions: endpoint: median survival time, higher = longer survival
Summary of the method: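 Mice carrying the transplanted tumor received test compound or vehicle. Survival was recorded in each group, and the value is the treated-group measurement divided by that of the vehicle-treated control group.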

[1] = dose: 50.0 mg/kg/injection, schedule: Q01DX009 (ip), vehicle: saline with Tween-80
[2] = dose: 100.0 mg/kg/injection, schedule: Q01DX009 (ip), vehicle: saline with Tween-80
[3] = dose: 200.0 mg/kg/injection, schedule: Q01DX009 (ip), vehicle: saline with Tween-80
[4] = dose: 25.0 mg/kg/injection, schedule: Q01DX009 (ip), vehicle: saline
[5] = dose: 50.0 mg/kg/injection, schedule: Q01DX009 (ip), vehicle: saline
[6] = dose: 100.0 mg/kg/injection, schedule: Q01DX009 (ip), vehicle: saline
[7] = dose: 50.0 mg/kg/injection, schedule: Q01DX005 (ip), vehicle: Klucel (hydroxypropylcellulose) (HPC)

O=C(O)c1cc(C(=O)O)c(C(=O)O)cc1C(=O)O.[NH2-].[NH2-].[NH2-].[NH2-].[Pt+2].[Pt+2]
T/C (dose: 0.78 mg/kg/injection, schedule: Q01DX005 (ip), vehicle: water): 106 % of control
T/C (dose: 1.56 mg/kg/injection, schedule: Q01DX005 (ip), vehicle: suspension in saline): 108 % of control
T/C (dose: 1.56 mg/kg/injection, schedule: Q01DX005 (ip), vehicle: water): 115 % of control
T/C (dose: 3.12 mg/kg/injection, schedule: Q01DX005 (ip), vehicle: saline): 113 % of control
T/C (dose: 3.13 mg/kg/injection, schedule: Q01DX005 (ip), vehicle: water): 119 % of control
T/C (dose: 6.25 mg/kg/injection, schedule: Q01DX005 (ip), vehicle: saline): 105 % of control
T/C (dose: 6.25 mg/kg/injection, schedule: Q01DX005 (ip), vehicle: suspension in saline): 118 % of control
T/C (dose: 9.0 mg/kg/injection, schedule: Q01DX005 (ip), vehicle: suspension in saline): 110 % of control
T/C (dose: 12.5 mg/kg/injection, schedule: Q01DX005 (ip), vehicle: suspension in saline): 161 % of control
T/C (dose: 12.5 mg/kg/injection, schedule: Q01DX005 (ip), vehicle: water): 166 % of control
T/C (dose: 25.0 mg/kg/injection, schedule: Q01DX005 (ip), vehicle: saline): 153 % of control
T/C (dose: 25.0 mg/kg/injection, schedule: Q01DX005 (ip), vehicle: suspension in saline): 174 % of control and 176 % of control
T/C (dose: 41.67 mg/kg/injection, schedule: Q01DX005 (ip), vehicle: suspension in saline): 150 % of control
T/C (dose: 50.0 mg/kg/injection, schedule: Q01DX005 (ip), vehicle: saline): 186 % of control

NC(=O)C1CCCN1C(=O)C1CCCN(Cc2cc(CN3CCCC(C(=O)N4CCCC4C(N)=O)C3)cc(CN3CCCC(C(=O)N4CCCC4C(N)=O)C3)c2)C1 (stereo not given)
T/C (dose: 60.0 mg/kg/injection, schedule: Q01DX005 (ip), vehicle: saline): 104 % of control
T/C (dose: 120.0 mg/kg/injection, schedule: Q01DX005 (ip), vehicle: saline): 98 % of control
T/C (dose: 240.0 mg/kg/injection, schedule: Q01DX005 (ip), vehicle: saline): 95 % of control

Cc1cccnc1NCc1ccccn1
T/C (dose: 50.0 mg/kg/injection, schedule: Q01DX005 (ip), vehicle: saline with Tween-80): 103 % of control
T/C (dose: 100.0 mg/kg/injection, schedule: Q01DX005 (ip), vehicle: saline with Tween-80): 100 % of control
T/C (dose: 200.0 mg/kg/injection, schedule: Q01DX005 (ip), vehicle: saline with Tween-80): 93 % of control

Cc1cc(C)c(O)c(C(c2ccccc2)c2cc(C)cc(C)c2O)c1
T/C [1]: 99 % of control
T/C [2]: 118 % of control
T/C [3]: 115 % of control

CN1COc2ccc3ccccc3c2C1
T/C [4]: 101 % of control
T/C [5]: 98 % of control
T/C [6]: 106 % of control

OC1c2cc(Cl)cc(Cl)c2OC2(N3CCCC3)CCCCC12 (stereo not given)
T/C [1]: 100 % of control
T/C [2]: 96 % of control
T/C [3]: 102 % of control

CCc1nc(N)nc(N)c1-c1ccc(NCCN)c(N)c1
T/C (dose: 12.5 mg/kg/injection, schedule: Q01DX005 (ip), vehicle: Klucel (hydroxypropylcellulose) (HPC)): 104 % of control
T/C (dose: 25.0 mg/kg/injection, schedule: Q01DX005 (ip), vehicle: Klucel (hydroxypropylcellulose) (HPC)): 101 % of control
T/C [7]: 103 % of control and 107 % of control

CC(=O)C1C(=O)C(=O)N(c2ccc(F)cc2)C1=O (stereo not given)
T/C (dose: 100.0 mg/kg/injection, schedule: Q01DX001 (ip), vehicle: saline with Tween-80): 103 % of control
T/C (dose: 200.0 mg/kg/injection, schedule: Q01DX001 (ip), vehicle: saline with Tween-80): 99 % of control
T/C (dose: 400.0 mg/kg/injection, schedule: Q01DX001 (ip), vehicle: saline with Tween-80): 98 % of control

NCc1cc(=O)[nH]o1
T/C [5]: 89 % of control
T/C [6]: 92 % of control

Cc1cc(C(F)(F)F)nc2nc3ccccc3n12
T/C (dose: 60.0 mg/kg/injection, schedule: Q01DX005 (ip), vehicle: Klucel (hydroxypropylcellulose) (HPC)): 101 % of control
T/C (dose: 120.0 mg/kg/injection, schedule: Q01DX005 (ip), vehicle: Klucel (hydroxypropylcellulose) (HPC)): 102 % of control
T/C (dose: 240.0 mg/kg/injection, schedule: Q01DX005 (ip), vehicle: Klucel (hydroxypropylcellulose) (HPC)): 89 % of control

CCC[CH2][Sn]([CH3])([CH3])[CH2]CC[N+](C)(C)C
T/C (dose: 12.5 mg/kg/injection, schedule: Q01DX009 (ip), vehicle: saline): 95 % of control
T/C [4]: 98 % of control
T/C [5]: 96 % of control

CN(N=O)C(=O)NCCNC(=O)C1OC(n2ccc(=O)[nH]c2=O)C(O)C1O (stereo not given)
T/C [6]: 108 % of control

N#CC12CCC(CC1)CC2Cl (stereo not given)
T/C (dose: 0.5 mg/kg/injection, schedule: Q01DX009 (ip), vehicle: saline with Tween-80): 108 % of control
T/C (dose: 1.0 mg/kg/injection, schedule: Q01DX009 (ip), vehicle: saline with Tween-80): 100 % of control
T/C (dose: 2.0 mg/kg/injection, schedule: Q01DX009 (ip), vehicle: saline with Tween-80): 106 % of control
T/C (dose: 4.0 mg/kg/injection, schedule: Q01DX009 (ip), vehicle: saline with Tween-80): 113 % of control

S=C=NP1(N=C=S)=NP(N=C=S)(N=C=S)=NP(N=C=S)(N=C=S)=N1 (stereo not given)
T/C [7]: 107 % of control
T/C (dose: 100.0 mg/kg/injection, schedule: Q01DX005 (ip), vehicle: Klucel (hydroxypropylcellulose) (HPC)): 97 % of control

From PubChem BioAssay AID330 (DTP/NCI, 2004)
